Source: patent publication US5573999A, “β-substituted cinnamic acid derivative” (BASF Aktiengesellschaft, priority 1991, dated 1996)

Assays:
[1] = tested on: mitochondrial respiration; experiment: Inhibition of mitochondrial respiration (rate of reduction of cytochrome c in isolated mitochondria), house fly; assay type: biochemical, Musca domestica; settings: DMSO control
From the text: (§1) It is also possible similarly to isolate mitochondria from other organisms, e.g. from the phytopathogenic fungus Drechslera sorokiniana (synonym: Helminthosporium sativum), from the dermatophyte Trichophyton mentagrophytes, which is a human pathogen, and, for example, from the house fly (Musca domestica) as insect or from the spider mite Tetranychus urticae.
(§2) Used as control is a mixture with the equivalent amount of pure DMSO. The inhibition at the concentration of agent in each case is then calculated as follows [formula] where ΔE is the change in extinction, at is the change in time, [formula] is the reaction rate for the control and [formula] is the reaction rate for the sample x.
(§3) The inhibition was determined in each case at a test substance concentration of 1.8/10^-5mol/l .

[2] = tested on: mitochondrial respiration; experiment: Inhibition of mitochondrial respiration (rate of reduction of cytochrome c in isolated mitochondria), phytopathogenic fungus; assay type: biochemical, Drechslera sorokiniana; settings: DMSO control
From the text: as §1, §2, §3

[3] = tested on: Plasmopara viticola; experiment: Activity against Plasmopara viticola on potted vines; assay type: in vivo; settings: aqueous dispersion containing 250 ppm active ingredient, infected 8 days after spraying
Procedure: Leaves of potted vines of the Muller Thurgau variety were sprayed with an aqueous liquor which contained 80% of active ingredient and 20% of emulsifier in dry matter. To assess the duration of action of the active ingredient, after the sprayed-on layer had dried the plants were placed in a greenhouse for 8 days. The leaves were then infected with a suspension of Plasmopara viticola zoospores. The vines were then placed first in a chamber saturated with water vapor at 24° C. for 48 hours and then in a greenhouse at from 20° to 30° C. for 5 days. After this, to speed up sporangiophore discharge, the plants were again placed in the humidity chamber for 16 hours. The extent of fungus attack was then assessed on the undersides of the leaves.

[4] = tested on: mitochondrial respiration; experiment: Inhibition of mitochondrial respiration (rate of reduction of cytochrome c in isolated mitochondria), yeast; assay type: biochemical, Saccharomyces cerevisiae; settings: DMSO control
From the text: In order to determine the effect of the compounds according to the invention on mitochondrial respiration it is first necessary to isolate the mitochondria from the organisms being investigated. For this, in the case of the yeast Saccharomyces cerevisiae, the cells in a 30 to 40% strength suspension of the yeast in an aqueous solution of 0.6M mannitol+0.01M tris[hydroxymethyl]-aminomethane+0.002M disodium ethylenediaminetetraacetate (pH 6.8) are disrupted in a glass bead mill, and the extract is fractionated by differential centrifugation at 1000× g and 12000× g. The mitochondria are in the pellet from the 12000× g centrifugation.
as §2, §3

[5] = tested on: Pyricularia oryzae; assay type: in vivo; settings: aqueous dispersion containing 250 ppm active ingredient; rice seedlings, protective, assessed after 6 days
[6] = tested on: wheat mildew (Erysiphe graminis var. tritici); experiment: Activity against wheat mildew on wheat seedlings; assay type: in vivo; settings: aqueous dispersion containing 250 ppm active ingredient, assessed after 7 days
Procedure: Leaves of pot-grown wheat seedlings of the Fruhgold variety were sprayed with an aqueous liquor which contained 80% of active ingredient and 20% of emulsifier in dry matter and, 24 hours after the sprayed-on layer had dried, were dusted with spores of wheat mildew (Erysiphe graminis var. tritici). The test plants were then placed in a greenhouse at from 20° to 22° C. and from 75 to 80% relative humidity. The extent of mildew spread was assessed after 7 days.

| SMILES | % inhibition of respiration at 1.8 × 10^-5 mol/l test substance, Musca domestica [1] [%] | % inhibition of respiration at 1.8 × 10^-5 mol/l test substance, Drechslera sorokiniana [2] [%] | fungal attack, Plasmopara viticola [3] [%] | % inhibition of respiration at 1.8 × 10^-5 mol/l test substance, Saccharomyces cerevisiae [4] [%] | fungal attack, Pyricularia oryzae [5] [%] | fungal attack, wheat mildew [6] [%] |
| --- | --- | --- | --- | --- | --- | --- |
| O=C(C=C(c1ccccc1)c1ccccc1)N1CCOCC1 [A, morpholide of β-phenylcinnamic acid, reference compound] | 5 | 0 | 35 | 2 | 60 | 45 |
| COC(=O)/C=C(/OC)c1ccccc1COc1ccc(C(C)=NOCC(C)C)cc1C [Compound 1a.60] | 93 | 99 | – | 97 | – | 15 |
| CON=C(C)c1cc(C)c(OCc2ccccc2/C(=C\C(=O)OC)OC)cc1C [Compound 1a.61] | 97 | – | 10 | 98 | – | 15 |
| C=CCON=Cc1cccc(OCc2ccccc2/C(=C\C(=O)OC)OC)c1 [Compound 1a.63] | 85 | – | 10 | 93 | – | 15 |
| COC(=O)/C=C(/OC)c1ccccc1COc1cccc(C=NOCc2ccccc2Cl)c1 [Compound 1a.64] | 93 | 98 | – | 94 | – | – |
| CO/N=C(\C)c1ccc(OCc2ccccc2/C(=C\C(=O)OC)OC)c(C)c1 [Compound 1a.72, methyl (E)-β-methoxy-2-[2-methyl-4-(1-methoximinoethyl)phenoxymethyl]cinnamate] | 94 | 100 | 10 | 98 | 15 | 15 |
| COC(=O)/C=C(/OC)c1ccccc1COc1nc(-c2ccccc2)cs1 [Compound 1a.181, methyl (E)-β-methoxy-2-(4-phenyl-2-thiazolyloxymethyl)cinnamate] | – | – | – | 99 | 15 | – |
| COC(=O)/C=C(/OC)c1ccccc1/C=C/c1ccccc1[N+](=O)[O-] [Compound 1a.238] | 87 | 74 | 10 | 99 | – | – |
| COC(=O)/C=C(/OC)c1ccccc1/C=C/c1ccccc1C(F)(F)F [Compound 1a.243] | 89 | 94 | – | 99 | – | – |
| COC(=O)/C=C(/OC)c1ccccc1/C=C\c1ccccc1C [Compound 1a.248] | – | – | – | 95 | 15 | 15 |
| COC(=O)/C=C(/OC)c1ccccc1/C=C/c1ccc(-c2ccccc2)cc1 [Compound 1a.268, methyl 2-[2-(4-phenylphenyl)-(E)-ethenyl]-(E)-β-methoxycinnamate] | 95 | 97 | – | 95 | – | – |
| COC(=O)/C=C(/OC)c1ccccc1/C=C\c1ccc(-c2ccccc2)cc1 [Compound 1a.269, methyl 2-[2-(4-phenylphenyl)-(Z)-ethenyl]-(E)-β-methoxycinnamate] | 76 | 81 | – | 96 | – | – |
| COC(=O)/C=C(/OC)c1ccccc1/C=C/c1ccc(Oc2ccccc2)cc1 [Compound 1a.273] | 95 | 96 | – | 95 | – | – |
| COC(=O)/C=C(/OC)c1ccccc1/C=C/c1ccoc1 [Compound 1a.292] | 61 | 79 | – | 87 | – | 15 |
| COC(=O)/C=C(/OC)c1ccccc1/C=C/c1coc(-c2ccc(Cl)cc2)n1 [Compound 1a.302] | 96 | – | – | 97 | 15 | – |
| COC(=O)/C=C(/OC)c1ccccc1/C=C/c1csc(-c2ccc(Cl)cc2)n1 [Compound 1a.314] | – | – | – | 99 | 15 | – |
| COC(=O)/C=C(/OC)c1ccccc1CON=C(C)c1ccc(Cl)cc1 [Compound 1a.356, methyl2-[1-(4-chlorophenyl)ethylideneaminoxymethyl]-(E)-β-methoxycinnamate] | – | – | 10 | – | 15 | 15 |
